Data set [1] can be described thus: Selectivity ratio of IC50 for rat kidney ALR1 IC50 to IC50 for human recombinant ALR2.
The test system of data set [2] is MIN6. Put plainly: Effect on cell morphology in mouse MIN6 cells assessed as cell viability up to 400 uM incubated for 24 hrs. The following applies: min6, 24 h. It is filed as cell-based.
Data set [3] relates to MIN6. The experiment in a line: Cytotoxicity against mouse MIN6 cells assessed as reduction in cell viability up to 200 uM incubated for 24 hrs by MTT assay. The following applies: min6, 24 h. The class given is cell-based. On the technique in general: Tetrazolium dyes change colour on reduction, which living cells bring about.
In data set [4] the target is Aldo-keto reductase family 1 member B1 (Rattus norvegicus) (UniProt P07943). Put plainly: (§1) Inhibition of ALR2 in rat lens assessed as reduction in sorbitol accumulation incubated for 3 hrs in presence of 28 mM glucose by gas chromatographic analysis relative to control.
The target in data set [5] is T1, Aldo-keto reductase family 1 member B1 (Rattus norvegicus, UniProt P07943). Described as §1.
The nature of data set [6]: Cytotoxicity against HEK293 cells assessed as reduction in cell viability at 100 uM incubated for 48 hrs by MTT assay relative to control. It is filed as cell-based. The note with it: human, read-out: INH.
Data set [7] concerns the target Aldo-keto reductase family 1 member A1 (Rattus norvegicus, UniProt P51635). The experiment in a line: Inhibition of rat kidney ALR1 using DL-glyceraldehyde as substrate and NADPH preincubated for 5 mins followed by substrate addition and measured for 30 mins at 2 mins interval by spectrophotometry relative to control.
Data set [8] can be described thus: Cytotoxicity against HEK293 cells assessed as reduction in cell viability at 200 uM incubated for 48 hrs by MTT assay relative to control. The class given is cell-based. The following applies: human, read-out: INH.
Data set [9] in a line: Cytotoxicity against mouse MIN6 cells assessed as cell viability at 400 uM incubated for 24 hrs by MTT assay. It is filed as cell-based. The note with it: read-out: Activity.
The nature of data set [10]: Cytotoxicity against HEK293 cells assessed as reduction in cell viability at 50 uM incubated for 48 hrs by MTT assay relative to control. It is filed as cell-based. The note with it: human, read-out: INH.
The target of data set [11] is Aldo-keto reductase family 1 member B1 (Rattus norvegicus) (UniProt P07943). Put plainly: (§2) Inhibition of ALR2 in rat sciatic nerve assessed as reduction in sorbitol accumulation incubated for 3 hrs in presence of 28 mM glucose by gas chromatographic analysis.
Data set [12] has as its target T1, Aldo-keto reductase family 1 member B1. The data set is described as §2.
Data set [13] in a line: Cytotoxicity against HEK293 cells assessed as reduction in cell viability at 25 uM incubated for 48 hrs by MTT assay relative to control. It is filed as cell-based. The note with it: human, read-out: INH.
Data set [14] is described as follows: Antioxidant activity assessed as DPPH radical scavenging activity at 100 uM incubated for 30 mins under dark condition by spectrophotometry. It is filed as functional. (The DPPH test is a chemical assay of radical scavenging.)
Data set [15] concerns the target Aldo-keto reductase family 1 member B1 (Rattus norvegicus) (UniProt P07943). The experiment in a line: (§3) Inhibition of ALR2 in rat erythrocytes assessed as reduction in sorbitol accumulation incubated for 3 hrs in presence of 28 mM glucose by gas chromatographic analysis relative to control. The class given is cell-based.
Data set [16] addresses T1, Aldo-keto reductase family 1 member B1. Described as §3. The class given is cell-based.
The test system of data set [17] is MIN6. The experiment in a line: Antidiabetic activity in mouse MIN6 cells after 35 passages assessed as increase in insulin secretion at 100 uM in presence of 25 mM glucose by ELISA relative to control. The class given is functional. (In general: An ELISA detects its analyte on a solid surface through an enzyme-linked reagent.)
The target in data set [18] is Aldo-keto reductase family 1 member B1 (Homo sapiens, UniProt P15121). The experiment in a line: Inhibition of human recombinant ALR2 expressed in Escherichia coli using DL-glyceraldehyde as substrate and NADPH preincubated for 5 mins followed by substrate addition and measured after 30 mins at 2 mins interval by spectrophotometry relative to control.
In data set [19] the test system is MIN6. The experiment in a line: Antidiabetic activity in mouse MIN6 cells after 83 passages assessed as increase in insulin secretion at 100 uM in presence of 25 mM glucose by ELISA relative to control. The class given is functional.
Data set [20] relates to MIN6. The experiment in a line: Antidiabetic activity in mouse MIN6 cells after 35 passages assessed as increase in insulin secretion incubated for 48 hrs presence of 25 mM glucose by ELISA. The class given is functional, cell-based.
Data set [21] relates to Mus musculus. The experiment in a line: Antihyperglycemic activity in alloxanized BALB/c mouse assessed as reduction in blood glucose level at 150 mg/kg, po measured after 8 hrs relative to control. It is filed as functional.
Data set [22] deals with MIN6. Put plainly: Antidiabetic activity in mouse MIN6 cells after 83 passages assessed as increase in insulin secretion incubated for 48 hrs presence of 25 mM glucose by ELISA. It is filed as functional, cell-based.
The subject of data set [23] is MIN6. The experiment in a line: Antidiabetic activity in mouse MIN6 cells after 35 passages assessed as increase in insulin secretion incubated for 48 hrs presence of 1 mM glucose by ELISA. The class given is functional, cell-based.
Data set [24] concerns MIN6. The experiment in a line: Antidiabetic activity in mouse MIN6 cells after 83 passages assessed as increase in insulin secretion incubated for 48 hrs presence of 1 mM glucose by ELISA. The class given is functional, cell-based.
The nature of data set [25]: Antioxidant activity assessed as DPPH radical scavenging activity at 50 uM incubated for 30 mins under dark condition by spectrophotometry. It is filed as functional.
Data set [26] is described as follows: Antioxidant activity assessed as DPPH radical scavenging activity at 10 uM incubated for 30 mins under dark condition by spectrophotometry. The class given is functional.

Molecules are shown by their SMILES. pIC50: −log10 of the molar value. The source made the active and inactive calls. No cut-off for these calls is given here.

Sequence of Aldo-keto reductase family 1 member A1 (P51635 whole entry, looked up): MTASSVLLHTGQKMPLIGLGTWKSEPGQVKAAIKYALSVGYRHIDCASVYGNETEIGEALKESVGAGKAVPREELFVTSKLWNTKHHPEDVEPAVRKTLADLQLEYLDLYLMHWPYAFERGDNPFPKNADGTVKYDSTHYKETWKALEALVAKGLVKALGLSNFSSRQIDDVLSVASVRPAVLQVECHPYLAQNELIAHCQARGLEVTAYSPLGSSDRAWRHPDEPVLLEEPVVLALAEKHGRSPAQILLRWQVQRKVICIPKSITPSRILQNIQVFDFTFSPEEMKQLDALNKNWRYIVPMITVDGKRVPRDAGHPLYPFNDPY

For `O=C1NC2(CCCc3ccccc32)C(=O)N1S(=O)(=O)c1ccc(Br)cc1` (stereo not given), in [1], the Ratio IC50 is 4.07. Besides, the Activity result in data set [2] is reported as “Non-Toxic”; in [3] it was “Non-Toxic”; in data set [17], 165%. Besides, the inhibition – broadly, the drop in the measured response relative to a control, in per cent – in data set [4] is “Dose-dependent effect”; in [11], “Dose-dependent effect”; in [14] it was 1.55%; in [15], “Dose-dependent effect”. The negative logarithm of the IC50 (pIC50) (usually the negative decadic logarithm of the IC50, by convention in mol/L) in [5] was 4.96; in [7], 4.36; in data set [12] it was 4.98; in data set [16], 4.95; in [18] it was 4.96. Besides, the cytotoxicity at 48 h, 100 µM in [6] came out at 21.1%. Moreover, in [8], the cytotoxicity at 48 h, 200 µM turned out to be 39.3%. Further, in data set [9], the viability at 24 h, 400 µM is 81%. The cytotoxicity at 48 h, 50 µM in [10] is 18.9%. In addition, the cytotoxicity at 48 h, 25 µM in [13] came to 16.9%.

In the case of `CCCCNC(=O)NS(=O)(=O)c1ccc(C)cc1` [TOLBUTAMIDE], the Activity in data set [19] is 110%; in data set [17] it was 340%. The outcome in data set [20], in data set [22], in data set [23] and in data set [24] was Active. For the same compound, in [21], the inhibition in vivo (usually the drop in the measured response relative to a control, in per cent) at 150 mg/kg stood at 47.2%.

In the case of `CC(C)c1ccc(S(=O)(=O)N2C(=O)NC3(CCCc4ccccc43)C2=O)cc1` (stereo not given), in [1], the Ratio IC50 stood at 4.05. For the same compound, the Activity entry in [2] is “Non-Toxic”; in [3], “Non-Toxic”; in data set [19], 84%; in [17], 295%. Further, the inhibition result in data set [4] was “Dose-dependent effect”; in data set [25], 84.2%; in data set [11], “Dose-dependent effect”; in data set [26] it was 82.3%; in data set [14] it was 92.3%; in data set [15] it was “Dose-dependent effect”. Besides, the pIC50 in data set [5] was 4.97; in [7], 4.49; in data set [12], 4.89; in data set [16], 4.99; in data set [18], 5.10. Further, the cytotoxicity at 48 h, 100 µM in data set [6] turned out to be 12.6%. The outcome in [20], in [23] and in [24] was inactive. In [8], the cytotoxicity at 48 h, 200 µM was 18.5%. Moreover, the viability at 24 h, 400 µM in [9] was found to be 81%. For the same compound, the cytotoxicity at 48 h, 50 µM in [10] is 12.5%. Moreover, the cytotoxicity at 48 h, 25 µM in data set [13] stood at 10.1%.

As to `COc1ccc(S(=O)(=O)N2C(=O)NC3(CCCc4ccccc43)C2=O)cc1` (stereo not given), in data set [1], the Ratio IC50 is 2.2. Also, the Activity entry in data set [2] is given as “Non-Toxic”; in data set [3], “Non-Toxic”; in [17], 142%. Besides, the inhibition entry in [4] was “Dose-dependent effect”; in data set [25], 45.3%; in [11], “Dose-dependent effect”; in data set [26], 31.6%; in [14] it was 66.9%; in [15], “Dose-dependent effect”. Also, the pIC50 was 4.80 in data set [5]; 4.59 in data set [7]; 4.71 in data set [12]; 4.69 in data set [16]; 4.93 in data set [18]. Further, in data set [6], the cytotoxicity at 48 h, 100 µM was 18.5%. Besides, in data set [8], the cytotoxicity at 48 h, 200 µM amounted to 26.6%. For the same compound, in data set [9], the viability at 24 h, 400 µM was 81%. Moreover, in data set [10], the cytotoxicity at 48 h, 50 µM amounted to 13.6%. Besides, in data set [13], the cytotoxicity at 48 h, 25 µM came out at 15.4%.

Turning to `COc1ccc(S(=O)(=O)N2C(=O)NC(=O)C23CCCc2ccccc23)cc1` (stereo not given), the Ratio IC50 in data set [1] worked out at 1.88. For the same compound, the Activity result in [2] was “Non-Toxic”; in [3] it was “Non-Toxic”; in data set [19], 122%; in data set [17], 170%. Further, the inhibition entry was “Dose-dependent effect” in [4]; 53.3% in data set [25]; “Dose-dependent effect” in data set [11]; 41.4% in data set [26]; 66.8% in data set [14]; “Dose-dependent effect” in [15]. Also, the pIC50 was 5.13 in data set [5]; 4.97 in data set [7]; 5.20 in data set [12]; 5.15 in data set [16]; 5.25 in [18]. Moreover, in data set [6], the cytotoxicity at 48 h, 100 µM stood at 25.2%. In addition, the cytotoxicity at 48 h, 200 µM in data set [8] came out at 27.5%. For the same compound, the viability at 24 h, 400 µM in data set [9] came out at 81%. Also, the cytotoxicity at 48 h, 50 µM in data set [10] came out at 21.1%. The cytotoxicity at 48 h, 25 µM in data set [13] came out at 14%.

On to `CC(=O)c1ccc(S(=O)(=O)N2C(=O)NC(=O)C23CCCc2ccccc23)cc1` (stereo not given), for which the Ratio IC50 in data set [1] came to 53.7. Besides, the Activity result in [2] is listed as “Non-Toxic”; in [3], “Non-Toxic”; in [19] it was 228%; in [17] it was 370%. In addition, the inhibition entry in [4] is “Dose-dependent effect”; in [25], 39.7%; in data set [11], “Dose-dependent effect”; in [26], 25.2%; in [14], 75.5%; in data set [15], “Dose-dependent effect”. The negative-log IC50 (pIC50) in [5] was 6.19; in [7] it was 4.49; in data set [12], 6.17; in data set [16], 6.22; in [18] it was 6.19. Also, the cytotoxicity at 48 h, 100 µM in data set [6] stood at 26.6%. Moreover, the result in data set [20], in [22], in [23] and in [24] was Active. The cytotoxicity at 48 h, 200 µM in data set [8] was found to be 34.6%. In addition, the viability at 24 h, 400 µM in data set [9] worked out at 81%. In data set [10], the cytotoxicity at 48 h, 50 µM came to 23.2%. Also, the inhibition in vivo at 150 mg/kg in [21] worked out at 52.2%. Further, the cytotoxicity at 48 h, 25 µM in [13] was 16.3%.

As to `O=C1NC(=O)C2(CCCc3ccccc32)N1S(=O)(=O)c1ccc(Br)cc1` (stereo not given), in [1], the Ratio IC50 is 7.23. Further, the Activity result was “Non-Toxic” in data set [2], “Non-Toxic” in data set [3], 160% in data set [19] and 210% in data set [17]. The inhibition entry is “Dose-dependent effect” in data set [4], “Dose-dependent effect” in [11], 1.59% in data set [14] and “Dose-dependent effect” in data set [15]. In addition, the pIC50 is 5.60 in [5]; 4.38 in data set [7]; 5.57 in [12]; 5.55 in data set [16]; 5.24 in [18]. In addition, in [6], the cytotoxicity at 48 h, 100 µM is 19.4%. The cytotoxicity at 48 h, 200 µM in data set [8] came out at 25.8%. Besides, the viability at 24 h, 400 µM in [9] amounted to 81%. For the same compound, in data set [10], the cytotoxicity at 48 h, 50 µM was 18.8%. Besides, in [13], the cytotoxicity at 48 h, 25 µM came to 12.8%.

These data come from ChEMBL document CHEMBL4387705, “Synthesis of new arylsulfonylspiroimidazolidine-2',4'-diones and study of their effect on stimulation of insulin release from MIN6 cell line, inhibition of human aldose reductase, sorbitol accumulations in various tissues and oxidative stress” (Eur J Med Chem, 2019).
